Laboratory results from patent US20100197738A1, “FLY CONTROL METHOD” (priority 2007, published 2010).

System: Adult L. serricata (blowflies)
Test: Test A: adult blowflies on blood agar containing test compound, scored by number of dead flies
Format: in vivo
Conditions: 4 flies in test
Method: Adult L. serricata (blowflies): Adult flies are placed on beds of blood agar (in individual test wells; 4 flies per well) in which test compound, (3-bromo-N-[4-chloro-2-methyl-6-[(methylamino)carbonyl]phenyl]-1-(3-chloro-2-pyridinyl)-1H-pyrazole-5-carboxamide), was dissolved/suspended prior to hardening of agar. Flies can take up test compound by both ingestion and contact. Assays are scored by number of dead flies at 2 hours, 4 hours, and 24 hours.

Row | SMILES | Number dead flies at 2 hours (Rate 1 ppm in blood agar) | Number dead flies at 4 hours (Rate 1 ppm in blood agar) | Number dead flies at 24 hours (Rate 1 ppm in blood agar) | Number dead flies at 2 hours (Rate 10 ppm in blood agar) | Number dead flies at 4 hours (Rate 10 ppm in blood agar) | Number dead flies at 24 hours (Rate 10 ppm in blood agar) | Number dead flies at 2 hours (Rate 25 ppm in blood agar) | Number dead flies at 4 hours (Rate 25 ppm in blood agar) | Number dead flies at 24 hours (Rate 25 ppm in blood agar) | Number dead flies at 2 hours (Rate 50 ppm in blood agar) | Number dead flies at 4 hours (Rate 50 ppm in blood agar) | Number dead flies at 24 hours (Rate 50 ppm in blood agar) | Number dead flies at 2 hours (Rate 100 ppm in blood agar) | Number dead flies at 4 hours (Rate 100 ppm in blood agar) | Number dead flies at 24 hours (Rate 100 ppm in blood agar)
1 | CCOP(=S)(OCC)Oc1nc(Cl)c(Cl)cc1Cl [Chloropyriphos, O,O-diethyl-O-3,5,6-trichloro-2-pyridyl-phosphorothioate] | 0 | 1 | 4 | 1 | 4 | 4 | 3 | 4 | 4 | 4 | 4 | 4 | 4 | 4 | 4
2 | CNC(=O)c1cc(Cl)cc(C)c1NC(=O)c1cc(Br)nn1-c1ncccc1Cl [Test Compound, 3-bromo-N-[4-chloro-2-methyl-6-[(methylamino)carbonyl]phenyl]-1-(3-chloro-2-pyridinyl)-1H-pyrazole-5-carboxamide] | 0 | 0 | 0 | 0 | 0 | 1 | 0 | 0 | 2 | 0 | 0 | 2 | 0 | 0 | 3
